Reference: ChEMBL document CHEMBL1141771, “p-Aminoacetophenonic acids produced by a mangrove endophyte: Streptomyces griseus subsp” (J Nat Prod, 2005)
Activity calls are given as the source filed them.

Assays:
[1] = Activity of hydroxysteroid dehydrogenase
[2] = Activity of peroxidase
L929 = assay: Cytotoxicity against mouse L929 cells; format: functional, cell-based
K562 = assay: Cytotoxicity against human K562 cells; format: functional, cell-based
HeLa = assay: Cytotoxicity against human HeLa cells; format: functional, cell-based

Measured: Activity

CC(O)C(/C=C/C=C/C(=O)O)C(C)CC(C)C(O)CC(=O)c1ccc(N)cc1 (stereo not given)
inactive: all assays above

CC(/C=C/C(=O)c1ccc(N)cc1)CC(C)C(=O)O (stereo not given)
inactive: all assays above

C/C(=C\C(C)CC(C)C(O)CC(=O)c1ccc(N)cc1)C(=O)O (stereo not given)
inactive: all assays above
